Experimental data from patent US20100003332A1, “Process For Preparing Powder Comprising Nanoparticles of Sparingly Soluble Drug” (Amorepacific Corporation, priority 2006, published 2010).
Read-outs that look alike come from different tables or passages of the source. Blank lines part the entries; values can stand above or below the compound they belong to.

How the values were obtained:
[1] = Bioavailability test: blood drug concentration after oral administration of suspensions to rats; format: in vivo; settings: rat, suspension in distilled water, male rats fasted for 12 hours
Protocol: In order to investigate the bioavailability of the powder according to the present invention, cilostazol powder prepared in Example 6 and unprocessed cilostazole as a control group (average particle size: 3 to 5 μm, Dongwoo Co., Ltd.) were suspended in distilled water, respectively. The suspensions having equivalent amounts of cilostazole were each orally administered to three male rats fasted for 12 hours. Blood samples were taken from the ophthalmic vein of the rats immediately after the administration, and 0.5, 1, 2, 4 and 7 hours after the administration to determined the blood drug concentration changes with time. Also the maximum blood concentration (Cmax, μg/ml) and the area under the blood drug concentration-time curve (AUC, μg*hr/ml) were calculated, and the results are shown in Table 8.

[2] = Particle size of cilostazol (lactose/SLS ratio) after redispersion of slurry or dried powder in distilled water, laser scattering particle size analyzer; format: physicochemical; settings: Lactose 225 g, SLS 225 g
[3] = as above; format: physicochemical
Protocol: 0.45 g of cilostazol (Dongwoo Co., Ltd.) and 0.15 g of hydroxypropyl cellulose were added to 5.1 ml of the saturated aqueous solution of lactose. […] The slurry mixture thus obtained was high-pressure filtered (pressure: 640 mmHg) using a sound pressure and freeze dried for 1 day to obtain powders.

[4] = Particle size of active ingredient (cilostazol, fenofibrate, itraconazole) powders redispersed in distilled water, laser scattering particle size analyzer; format: physicochemical; settings: powder redispersed in aqueous solution, surface stabilizer HPC, dispersion agent SUCROSE
Protocol: 1.2 g of each of the active ingredient, 0.2 g of hydroxypropyl cellulose and 1.2 g of sucrose were added to 6.1 g of distilled water containing a saturated solution of sucrose, an appropriate amount of zirconia bead having the average particle size of 1 mm were added thereto, and the mixture was roll ground at a rate of 108 rpm for 5 days. The slurry mixture thus obtained was screened to remove the beads, and the residue was high-pressure filtered (pressure: 640 mmHg) using the sound pressure, followed by vacuum drying to obtain powders.

[5] = Particle size of tacrolimus in redispersed powder with and without ultrasonic irradiation, laser scattering particle size analyzer; format: physicochemical; settings: lactose
Protocol: 0.01 g of each of the powders thus obtained was redispersed using an ultrasonic irradiation (frequency: 39 kHz). The particle of the tacrolimus was measured by using a laser scattering particle size analyzer (LA0910, Horiba) for each of the test solution with and without the ultrasonic irradiation, and the results are shown in Table 4.

[6] = Protocol: 0.15 g of naproxen (TCI Chem) having an average particle size of 3 to 10 μm, 0.15 g of lactose and 0.03 g of hydroxypropy cellulose (HPC) were added to 3.4 ml of a saturated aqueous solution of lactose, and the mixture was wet ground using an oscillating mill at the room temperature for 30 minutes. The slurry mixture thus obtained was centrifuged at 4° C., 15,000 rpm for 30 minutes, and the residue in the bottom layer was vacuum dried for 24 hours to obtain a powder.
In the above process, the averaged particle size of naproxen particles was measured for 1) a test solution obtained by redispering 0.02 ml of the slurry mixture obtained after wet grinding in 10 ml of distilled water, and 2) an another test solution obtained by redispersing 0.01 g of the dried powder in 8 ml of distilled water, by using a laser scattering particle size analyzer (LA-910, Horiba). The redispersion was conducted by shaking the mixture with a hand.
Additional powders were prepared by repeating the above-mentioned procedure except for using sucrose, mannitol, trehalose, sorbitol and xylitol, respectively, instead of lactose, and naproxen particle sizes were measured by the same procedure.

[7] = drying powder redispersed, Lactose 90 g, SLS 360 g
[8] = drying powder redispersed, Lactose 360 g, SLS 90 g
[9] = slurry mixture redispersed after wet grinding, Lactose 90 g, SLS 360 g
[10] = slurry mixture redispersed after wet grinding, Lactose 225 g, SLS 225 g
[11] = slurry mixture redispersed after wet grinding, Lactose 360 g, SLS 90 g
[12] = HPC, amount of lactose 20% by weight of active ingredient
[13] = HPC, amount of lactose 60% by weight of active ingredient
[14] = HPC, amount of lactose 100% by weight of active ingredient
[15] = HPC, amount of lactose 140% by weight of active ingredient
[16] = HPC, amount of lactose 180% by weight of active ingredient
[17] = dispersion agent Lactose, surface stabilizer PVP 10,000
[18] = dispersion agent Lactose, surface stabilizer PVP 29,000
[19] = dispersion agent Lactose, surface stabilizer PVP 55,000
[20] = dispersion agent Lactose, surface stabilizer PVP 130,000
[21] = dried powder redispersed in distilled water, surface stabilizer HPC, dispersion agent Lactose
[22] = dried powder redispersed, HPC, dispersion agent Mannitol
[23] = dried powder redispersed, HPC, dispersion agent Sorbitol
[24] = dried powder redispersed, HPC, dispersion agent Sucrose
[25] = dried powder redispersed, HPC, dispersion agent Trehalose
[26] = dried powder redispersed, HPC, dispersion agent Xylitol

Cmax ([1]; read-out: Cmax (maximum blood concentration)): 150 ± 80 ng/mL | AUC ([1]; samples to 7 hours, read-out: AUC (area under the blood drug concentration-time curve)): 580 ± 90 ng·h/mL
SMILES: O=C1CCc2cc(OCCCCc3nnnn3C3CCCCC3)ccc2N1 [Cilostazol raw material, cilostazol]

Particle size range D10 ([2]; drying powder redispersed): 240 nm | Particle size range D50 ([2]; drying powder redispersed): 350 nm | Particle size range D90 ([2]; drying powder redispersed): 490 nm | Particle size range D50 ([2]; slurry mixture redispersed after wet grinding): 330 nm | Average particle size [3, 7]: 350 nm | Particle size range D10 [3, 7]: 230 nm | Particle size range D50 [3, 7]: 340 nm | Particle size range D90 [3, 7]: 390 nm | Average particle size ([3]; drying powder redispersed, Lactose 225 g, SLS 225 g): 360 nm | Average particle size [3, 8]: 200 nm | Particle size range D10 [3, 8]: 150 nm | Particle size range D50 [3, 8]: 200 nm | Particle size range D90 [3, 8]: 270 nm | Average particle size [3, 9]: 340 nm | Particle size range D10 [3, 9]: 230 nm | Particle size range D50 [3, 9]: 340 nm | Particle size range D90 [3, 9]: 470 nm | Average particle size [3, 10]: 340 nm | Particle size range D10 [3, 10]: 230 nm | Particle size range D90 [3, 10]: 470 nm | Average particle size [3, 11]: 190 nm | Particle size range D10 [3, 11]: 140 nm | Particle size range D50 [3, 11]: 180 nm | Particle size range D90 [3, 11]: 250 nm | Average particle size [4]: 170 nm | Range of particle size ([4]; in nm): 120~228
SMILES: O=C1CCc2cc(OCCCCc3nnnn3C3CCCCC3)ccc2N1 [Cilostazol, cilostazol]

Particle size according to the ultrasonic irradiation time ([5]; surface stabilizer Hydroxyproply cellulose, 0 minute ultrasonic irradiation): 4,980 nm | Particle size according to the ultrasonic irradiation time ([5]; surface stabilizer Hydroxyproply cellulose, 1 minute ultrasonic irradiation (39 kHz)): 220 nm | Particle size according to the ultrasonic irradiation time ([5]; surface stabilizer Poloxamer 407, 0 minute ultrasonic irradiation): 510 nm | Particle size according to the ultrasonic irradiation time ([5]; surface stabilizer Poloxamer 407, 1 minute ultrasonic irradiation (39 kHz)): 420 nm | Particle size according to the ultrasonic irradiation time ([5]; surface stabilizer Polyvinylpyrrolidone, 0 minute ultrasonic irradiation): 1,561 nm | Particle size according to the ultrasonic irradiation time ([5]; surface stabilizer Polyvinylpyrrolidone, 1 minute ultrasonic irradiation (39 kHz)): 610 nm
SMILES: C=CC[C@@H]1/C=C(\C)C[C@H](C)C[C@H](OC)[C@H]2O[C@@](O)(C(=O)C(=O)N3CCCC[C@H]3C(=O)O[C@H](/C(C)=C/[C@@H]3CC[C@@H](O)[C@H](OC)C3)[C@H](C)[C@@H](O)CC1=O)[C@H](C)C[C@@H]2OC [tacrolimus]

Average particle size [6, 12]: 3,025 nm | Particle Size (D10~D90) [6, 12]: 154~4,292 nm | Average particle size [6, 13]: 500 nm | Particle Size (D10~D90) [6, 13]: 339~629 nm | Average particle size [6, 14]: 164 nm | Particle Size (D10~D90) [6, 14]: 40~260 nm | Average particle size [6, 15]: 391 nm | Particle Size (D10~D90) [6, 15]: 109~316 nm | Average particle size [6, 16]: 208 nm | Particle Size (D10~D90) [6, 16]: 108~310 nm | Average particle size [6, 17]: 16,800 nm | Particle Size (D10~D90) [6, 17]: 868.3~507.1 nm | Average particle size [6, 18]: 156.9 nm | Particle Size (D10~D90) [6, 18]: 95.9~208.7 nm | Average particle size [6, 19]: 192.4 nm | Particle Size (D10~D90) [6, 19]: 120.8~250.3 nm | Average particle size [6, 20]: 275.8 nm | Particle Size (D10~D90) [6, 20]: 150.6~417.5 nm | Average particle size [6, 21]: 164.1 nm | Particle Size (D10~D90) [6, 21]: 40.3~259.6 nm | Average particle size ([6]; dried powder redispersed in distilled water, surface stabilizer HPC, dispersion agent Lactose, listed as naproxen): about 164 nm | Average particle size [6, 22]: 450 nm | Particle Size (D10~D90) [6, 22]: 319.8~564.6 nm | Average particle size [6, 23]: 413.6 nm | Particle Size (D10~D90) [6, 23]: 280.4~532.7 nm | Average particle size [6, 24]: 297.1 nm | Particle Size (D10~D90) [6, 24]: 192.9~393.9 nm | Average particle size [6, 25]: 241.6 nm | Particle Size (D10~D90) [6, 25]: 162.8~312.5 nm | Average particle size [6, 26]: 637.9 nm | Particle Size (D10~D90) [6, 26]: 291.3~675.9 nm | average particle size of naproxen particles ([6]; slurry mixture after wet grinding redispersed in distilled water, HPC, lactose): about 133 nm
SMILES: COc1ccc2cc([C@H](C)C(=O)O)ccc2c1 [Naproxen, naproxen]
